Reference: the NIST ThermoML archive (doi:10.1021/je7000254)

Assay: xn = mol fraction of the nth substance listed
Details: Fluid (supercritical or subcritical phases), Taylor-Aris chromatographic method, x1 = 0

SMILES	binary diffusion coefficient (313.16 K, 15000 kPa) [m2/s]	binary diffusion coefficient (313.16 K, 20000 kPa) [m2/s]	binary diffusion coefficient (313.16 K, 25000 kPa) [m2/s]	binary diffusion coefficient (313.16 K, 30000 kPa) [m2/s]	binary diffusion coefficient (313.16 K, 35000 kPa) [m2/s]	binary diffusion coefficient (323.16 K, 15000 kPa) [m2/s]	binary diffusion coefficient (323.16 K, 20000 kPa) [m2/s]	binary diffusion coefficient (323.16 K, 25000 kPa) [m2/s]	binary diffusion coefficient (323.16 K, 30000 kPa) [m2/s]	binary diffusion coefficient (323.16 K, 35000 kPa) [m2/s]	binary diffusion coefficient (333.16 K, 15000 kPa) [m2/s]	binary diffusion coefficient (333.16 K, 20000 kPa) [m2/s]	binary diffusion coefficient (333.16 K, 25000 kPa) [m2/s]	binary diffusion coefficient (333.16 K, 30000 kPa) [m2/s]	binary diffusion coefficient (333.16 K, 35000 kPa) [m2/s]
Cc1cc(C)cc(C)c1 [1,3,5-trimethylbenzene] + O=C=O	1.04e-08	9.15e-09	8.21e-09	7.78e-09	7.46e-09	1.19e-08	1.11e-08	9.33e-09	9.23e-09	8.6e-09	1.42e-08	1.23e-08	1.15e-08	1.04e-08	9.89e-09
Nc1ccccc1 [aniline] + O=C=O	1.02e-08	9.75e-09	9.06e-09	8.43e-09	7.76e-09	1.18e-08	1.08e-08	9.66e-09	9.1e-09	8.7e-09	1.33e-08	1.19e-08	1.1e-08	1.02e-08	9.47e-09
C=Cc1ccccc1 [styrene] + O=C=O	1.19e-08	1.08e-08	9.58e-09	8.74e-09	8.27e-09	1.32e-08	1.12e-08	1.06e-08	9.2e-09	8.77e-09	1.55e-08	1.41e-08	1.22e-08	1.09e-08	1.02e-08
